Reference: PubChem BioAssay (NCI)
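48-hour exposure; five concentrations; linearly interpolated endpoints. Here, GI50 denotes the concentration required for 50% inhibition of growth. At the TGI there is no net growth.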

Legend:
Assay in all cases: inhibition of tumour cell growth, NCI panel, 48 h
OVCAR-3 ovarian = test system: OVCAR-3 ovarian
LOX IMVI melanoma = test system: LOX IMVI melanoma
SF-268 CNS = test system: SF-268 CNS
K-562 leukemia = test system: K-562 leukemia
786-0 renal = test system: 786-0 renal
DU-145 prostate = test system: DU-145 prostate
OVCAR-4 ovarian = test system: OVCAR-4 ovarian
MDA-MB-435 = test system: MDA-MB-435
NCI/ADR-RES ovarian = test system: NCI/ADR-RES ovarian
SK-OV-3 ovarian = test system: SK-OV-3 ovarian
PC-3 prostate = test system: PC-3 prostate
SK-MEL-2 melanoma = test system: SK-MEL-2 melanoma
SF-539 CNS = test system: SF-539 CNS
OVCAR-5 ovarian = test system: OVCAR-5 ovarian
UO-31 renal = test system: UO-31 renal
HCT-15 colon = test system: HCT-15 colon
NCI-H226 lung = test system: NCI-H226 lung
EKVX NSCLC = test system: EKVX NSCLC
M14 melanoma = test system: M14 melanoma
CAKI-1 renal = test system: CAKI-1 renal
COLO 205 colon = test system: COLO 205 colon
A498 renal = test system: A498 renal
OVCAR-8 ovarian = test system: OVCAR-8 ovarian
HOP-62 NSCLC = test system: HOP-62 NSCLC
SNB-75 CNS = test system: SNB-75 CNS
SNB-19 CNS = test system: SNB-19 CNS
HT29 colon = test system: HT29 colon
HCC-2998 colon = test system: HCC-2998 colon
MALME-3M melanoma = test system: MALME-3M melanoma
SW-620 colon = test system: SW-620 colon
HCT-116 colon = test system: HCT-116 colon
TK-10 renal = test system: TK-10 renal
A549 NSCLC = test system: A549 NSCLC
HOP-92 NSCLC = test system: HOP-92 NSCLC
RXF 393 renal = test system: RXF 393 renal
CCRF-CEM leukemia = test system: CCRF-CEM leukemia
NCI-H460 lung = test system: NCI-H460 lung
SF-295 CNS = test system: SF-295 CNS
HL-60(TB) leukemia = test system: HL-60(TB) leukemia
MCF7 breast = test system: MCF7 breast
MDA-MB-231 breast = test system: MDA-MB-231 breast
KM12 colon = test system: KM12 colon
MOLT-4 leukemia = test system: MOLT-4 leukemia
ACHN renal = test system: ACHN renal
NCI-H23 lung = test system: NCI-H23 lung
SK-MEL-5 melanoma = test system: SK-MEL-5 melanoma
RPMI-8226 leukemia = test system: RPMI-8226 leukemia
HS 578T breast = test system: HS 578T breast
SR leukemia = test system: SR leukemia
U251 CNS = test system: U251 CNS
UACC-62 melanoma = test system: UACC-62 melanoma
UACC-257 melanoma = test system: UACC-257 melanoma
NCI-H522 lung = test system: NCI-H522 lung
SN12C renal = test system: SN12C renal
IGROV1 ovarian = test system: IGROV1 ovarian
SK-MEL-28 melanoma = test system: SK-MEL-28 melanoma
BT-549 breast = test system: BT-549 breast
T-47D breast = test system: T-47D breast

## Cc1ccc(S(=O)(=O)NC(=O)Nc2nnc(S(N)(=O)=O)s2)cc1
OVCAR-3 ovarian
  TGI: > 100 µM
LOX IMVI melanoma
  TGI: > 100 µM
SF-268 CNS
  TGI: > 100 µM
K-562 leukemia
  TGI: > 100 µM
786-0 renal
  TGI: > 100 µM
DU-145 prostate
  TGI: > 100 µM
OVCAR-4 ovarian
  TGI: > 100 µM
MDA-MB-435
  TGI: > 100 µM
NCI/ADR-RES ovarian
  TGI: > 100 µM
SK-OV-3 ovarian
  TGI: > 100 µM
PC-3 prostate
  TGI: > 100 µM
SK-MEL-2 melanoma
  TGI: > 100 µM
SF-539 CNS
  TGI: > 100 µM
OVCAR-5 ovarian
  TGI: > 100 µM
UO-31 renal
  TGI: > 100 µM
HCT-15 colon
  TGI: > 100 µM
NCI-H226 lung
  TGI: > 100 µM
EKVX NSCLC
  TGI: > 100 µM
M14 melanoma
  TGI: > 100 µM
CAKI-1 renal
  TGI: > 100 µM
COLO 205 colon
  TGI: > 100 µM
A498 renal
  TGI: > 100 µM
OVCAR-8 ovarian
  TGI: > 100 µM
HOP-62 NSCLC
  TGI: > 100 µM
SNB-75 CNS
  TGI: > 100 µM
SNB-19 CNS
  TGI: > 100 µM
HT29 colon
  TGI: > 100 µM
HCC-2998 colon
  TGI: > 100 µM
MALME-3M melanoma
  TGI: > 100 µM
SW-620 colon
  TGI: > 100 µM
HCT-116 colon
  TGI: > 100 µM
TK-10 renal
  TGI: > 100 µM
A549 NSCLC
  TGI: > 100 µM
HOP-92 NSCLC
  TGI: > 100 µM
RXF 393 renal
  TGI: > 100 µM
CCRF-CEM leukemia
  TGI: > 100 µM
NCI-H460 lung
  TGI: > 100 µM
SF-295 CNS
  TGI: > 100 µM
HL-60(TB) leukemia
  TGI: > 100 µM
MCF7 breast
  TGI: > 100 µM
MDA-MB-231 breast
  TGI: > 100 µM
KM12 colon
  TGI: > 100 µM
MOLT-4 leukemia
  TGI: > 100 µM
ACHN renal
  TGI: > 100 µM
NCI-H23 lung
  TGI: > 100 µM
SK-MEL-5 melanoma
  TGI: > 100 µM
RPMI-8226 leukemia
  TGI: > 100 µM
HS 578T breast
  TGI: > 100 µM
SR leukemia
  TGI: > 100 µM
U251 CNS
  TGI: > 100 µM
UACC-62 melanoma
  TGI: > 100 µM

## COc1cc(/C=C/C(=O)/C=C/c2cc(OC)c3c(c2)OCO3)cc2c1OCO2
OVCAR-3 ovarian
  GI50: 7.66 µM
  TGI: > 100 µM
LOX IMVI melanoma
  GI50: 1.89 µM
  TGI: 4.35 µM
SF-268 CNS
  GI50: 5.47 µM
  TGI: > 100 µM
K-562 leukemia
  GI50: 22.9 µM
  TGI: > 100 µM
UACC-257 melanoma
  GI50: 3.52 µM
  TGI: 41.9 µM
NCI-H522 lung
  GI50: 14.5 µM
  TGI: > 100 µM
786-0 renal
  GI50: 9.63 µM
  TGI: > 100 µM
DU-145 prostate
  GI50: 18.4 µM
  TGI: > 100 µM
OVCAR-4 ovarian
  GI50: 52.8 µM
  TGI: > 100 µM
MDA-MB-435
  GI50: 1.92 µM
  TGI: 4.22 µM
NCI/ADR-RES ovarian
  GI50: 52.8 µM
  TGI: > 100 µM
SN12C renal
  GI50: 30.9 µM
  TGI: > 100 µM
SK-OV-3 ovarian
  GI50: 3.46 µM
  TGI: 48.2 µM
PC-3 prostate
  GI50: 72.2 µM
  TGI: > 100 µM
SK-MEL-2 melanoma
  GI50: > 100 µM
  TGI: > 100 µM
SF-539 CNS
  GI50: 22.6 µM
  TGI: > 100 µM
OVCAR-5 ovarian
  GI50: > 100 µM
  TGI: > 100 µM
UO-31 renal
  GI50: 5.77 µM
  TGI: > 100 µM
HCT-15 colon
  GI50: 4.42 µM
  TGI: > 100 µM
NCI-H226 lung
  GI50: 34.8 µM
  TGI: > 100 µM
EKVX NSCLC
  GI50: > 100 µM
  TGI: > 100 µM
M14 melanoma
  GI50: 4.03 µM
  TGI: 19.4 µM
CAKI-1 renal
  GI50: > 100 µM
  TGI: > 100 µM
COLO 205 colon
  GI50: 4.86 µM
  TGI: > 100 µM
A498 renal
  GI50: > 100 µM
  TGI: > 100 µM
OVCAR-8 ovarian
  GI50: 2.83 µM
  TGI: 12.9 µM
HOP-62 NSCLC
  GI50: 4.46 µM
  TGI: > 100 µM
SNB-75 CNS
  GI50: 8.55 µM
  TGI: 42.5 µM
SNB-19 CNS
  GI50: 10.3 µM
  TGI: > 100 µM
HT29 colon
  GI50: 2.64 µM
  TGI: 6.7 µM
HCC-2998 colon
  GI50: 1.98 µM
  TGI: 3.73 µM
MALME-3M melanoma
  GI50: > 100 µM
  TGI: > 100 µM
SW-620 colon
  GI50: 3.38 µM
  TGI: > 100 µM
IGROV1 ovarian
  GI50: 4.78 µM
  TGI: > 100 µM
HCT-116 colon
  GI50: 1.21 µM
  TGI: 2.78 µM
TK-10 renal
  GI50: 30.3 µM
  TGI: > 100 µM
A549 NSCLC
  GI50: 3.05 µM
  TGI: 15.1 µM
HOP-92 NSCLC
  GI50: 58.5 µM
  TGI: > 100 µM
RXF 393 renal
  GI50: 2.65 µM
  TGI: 6.57 µM
CCRF-CEM leukemia
  GI50: 5.95 µM
  TGI: > 100 µM
NCI-H460 lung
  GI50: > 100 µM
  TGI: > 100 µM
SF-295 CNS
  GI50: 11.3 µM
  TGI: > 100 µM
HL-60(TB) leukemia
  GI50: 63.4 µM
  TGI: > 100 µM
MDA-MB-231 breast
  GI50: 7.89 µM
  TGI: > 100 µM
KM12 colon
  GI50: 1.98 µM
  TGI: 4.07 µM
SK-MEL-28 melanoma
  GI50: 39 µM
  TGI: > 100 µM
MOLT-4 leukemia
  GI50: 9 µM
  TGI: > 100 µM
ACHN renal
  GI50: 7.25 µM
  TGI: > 100 µM
NCI-H23 lung
  GI50: 7.69 µM
  TGI: > 100 µM
SK-MEL-5 melanoma
  GI50: 5.59 µM
  TGI: > 100 µM
HS 578T breast
  GI50: 95.3 µM
  TGI: > 100 µM
BT-549 breast
  GI50: 3.02 µM
  TGI: 8.81 µM
T-47D breast
  GI50: 9.62 µM
  TGI: > 100 µM
U251 CNS
  GI50: 2.19 µM
  TGI: 6.45 µM
UACC-62 melanoma
  GI50: 16.3 µM
  TGI: > 100 µM
